# Molecular target: IRAK4 (Homo sapiens (Human), UniProt Q9NWZ3)
# Assay: IRAK-4 AlphaScreen biochemical kinase assay
# Conditions: 1 nM IRAK4, 1 mM ATP, 3.5 h at RT
# Outline: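 AlphaScreen read-out: streptavidin beads bind the biotinylated peptide and protein A beads bind the anti-phosphothreonine antibody, so energy transfer reports phosphorylation of the peptide. The kinase is human IRAK-4.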
# Chain of IRAK4 (Q9NWZ3 whole entry, species assumed): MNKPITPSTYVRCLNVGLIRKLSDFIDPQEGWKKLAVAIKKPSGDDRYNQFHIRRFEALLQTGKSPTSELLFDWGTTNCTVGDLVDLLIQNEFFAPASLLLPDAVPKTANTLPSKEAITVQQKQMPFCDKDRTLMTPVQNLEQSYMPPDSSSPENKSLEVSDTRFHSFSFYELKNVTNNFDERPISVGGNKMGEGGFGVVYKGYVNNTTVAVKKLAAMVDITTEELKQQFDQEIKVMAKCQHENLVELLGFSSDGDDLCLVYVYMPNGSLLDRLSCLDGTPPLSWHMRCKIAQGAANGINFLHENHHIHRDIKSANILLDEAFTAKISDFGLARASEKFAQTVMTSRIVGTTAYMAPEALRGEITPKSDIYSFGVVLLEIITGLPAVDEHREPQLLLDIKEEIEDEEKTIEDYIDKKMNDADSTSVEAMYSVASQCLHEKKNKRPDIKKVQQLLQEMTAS
row,Compound,IC50 [nM]
1,"CC(N)c1cccc(-c2ccc3cnn(-c4cccc(C(C)(C)C(N)=O)n4)c3c2)n1 (stereo not shown) [Example 301, 2-(6-(6-(6-(1-aminoethyl)pyridin-2-yl)-1H-indazol-1-yl)pyridin-2-yl)-2-methylpropanamide]",100 to 1000
2,"Cc1cccc(-n2ncc3ccc(-c4coc(CN)n4)cc32)n1 [Example 285, (4-(1-(6-methylpyridin-2-yl)-1H-indazol-6-yl)oxazol-2-yl)methanamine]",1000 to 10000
3,"CCC(N)c1cccc(-c2ccc3cnn(-c4cccc(C(N)=O)n4)c3c2)n1 (stereo not shown) [Example 269, 6-(6-(6-(1-aminopropyl)pyridin-2-yl)-1H-indazol-1-yl)picolinamide]",< 100
4,"Cc1nc(-n2ncc3ccc(-c4cccc(C(C)N)n4)cc32)cs1 (stereo not shown) [Example 136, 1-(6-(1-(2-methylthiazol-4-yl)-1H-indazol-6-yl)pyridin-2-yl)ethanamine]",100 to 1000
5,"CC(N)c1cccc(-c2ccc3cnn(-c4cccc(C(C)(C)N)n4)c3c2)n1 (stereo not shown) [Example 292, 2-(6-(6-(6-(1-aminoethyl)pyridin-2-yl)-1H-indazol-1-yl)pyridin-2-yl)propan-2-amine]",1000 to 10000
6,"Nc1cncc(-c2ccc3cnn(-c4cccc(CC(=O)O)n4)c3c2)c1 [Example 82, 2-(6-(6-(5-aminopyridin-3-yl)-1H-indazol-1-yl)pyridin-2-yl)acetic acid]",1000 to 10000
7,"COc1cc(-c2cccc(C(C)N)n2)cc2c1cnn2-c1cccc(CO)n1 (stereo not shown) [Example 307, (6-(6-(6-(1-aminoethyl)pyridin-2-yl)-4-methoxy-1H-indazol-1-yl)pyridin-2-yl)methanol]",< 100
8,"COCCC[C@H](N)c1cccc(-c2cc(-c3ccn(C)n3)c3cnn(-c4cccc(CO)n4)c3c2)n1 [Example 575, (S)-(6-(6-(6-(1-amino-4-methoxybutyl)pyridin-2-yl)-4-(1-methyl-1H-pyrazol-3-yl)-1H-indazol-1-yl)pyridin-2-yl)methanol]",< 100
9,"CC(N)c1cccc(-c2ccc3cnn(-c4cccc(C(F)(F)F)n4)c3c2)c1 (stereo not shown) [Example 89, 1-(3-(1-(6-(trifluoromethyl)pyridin-2-yl)-1H-indazol-6-yl)phenyl)ethanamine]",< 100
10,"C[C@H](N)c1cccc(-c2ccc3cnn(-c4cccc(CO)n4)c3c2)n1 [Example 143, (S)-(6-(6-(6-(1-aminoethyl)pyridin-2-yl)-1H-indazol-1-yl)pyridin-2-yl)methanol]",< 100
11,"CC(N)c1cccc(-c2ccc3cnn(-c4cccc(C5(C#N)CC5)n4)c3c2)n1 (stereo not shown) [Example 290, 1-(6-(6-(6-(1-aminoethyl)pyridin-2-yl)-1H-indazole-1-yl)pyridin-2-yl)cyclopropanecarbonitrile]",< 100
12,"CC[C@@H](N)c1cccc(-c2ccc3cnn(-c4cccc(CO)n4)c3c2)n1 [Example 322, (R)-(6-(6-(6-(1-aminopropyl)pyridin-2-yl)-1H-indazol-1-yl)pyridin-2-yl)methanol]",< 100
13,"CC(c1cccc(-c2ccc3cnn(-c4cccc(C(F)(F)F)n4)c3c2)n1)N(C)C (stereo not shown) [Example 216, N,N-dimethyl-1-(6-(1-(6-(trifluoromethyl)pyridin-2-yl)-1H-indazol-6-yl)pyridin-2-yl)ethanamine]",< 100
14,"Cc1cccc(-n2ncc3ccc(-c4ccc(C)c(C(C)N)n4)cc32)n1 (stereo not shown) [Example 281, 1-(3-methyl-6-(1-(6-methylpyridin-2-yl)-1H-indazol-6-yl)pyridin-2-yl)ethanamine]",< 100
15,"Cc1cccc(-n2ncc3ccc(-c4cncc(N5CCCC5)c4)cc32)n1 [Example 203, 1-(6-methylpyridin-2-yl)-6-(5-(pyrrolidin-1-yl)pyridin-3-yl)-1H-indazole]",1000 to 10000
16,"C[C@H](N)c1cccc(-c2cc(-c3ccnn3C(F)F)c3cnn(-c4cccc(CO)n4)c3c2)n1 [Example 387, (S)-(6-(6-(6-(1-aminoethyl)pyridin-2-yl)-4-(1-(difluoromethyl)-1H-pyrazol-5-yl)-1H-indazol-1-yl)pyridin-2-yl)methanol]",< 100
17,"Cc1cccc(-n2ncc3ccc(-c4nc(CN)cs4)cc32)n1 [Example 139, (2-(1-(6-methylpyridin-2-yl)-1H-indazol-6-yl)thiazol-4-yl)methanamine]",100 to 1000
18,"CC[C@@H](N)c1cccc(-c2cc(-c3cc(C)n(C)n3)c3cnn(-c4cccc(CO)n4)c3c2)n1 [Example 390, (R)-(6-(6-(6-(1-aminopropyl)pyridin-2-yl)-4-(1,5-dimethyl-1H-pyrazol-3-yl)-1H-indazol-1-yl)pyridin-2-yl)methanol]",< 100
19,"N#Cc1cccc(-c2ccc3cnn(-c4cccc(C(F)(F)F)n4)c3c2)n1 [Example 211, 6-(1-(6-(trifluoromethyl)pyridin-2-yl)-1H-indazol-6-yl)picolinonitrile]",1000 to 10000
20,"CC(=O)c1cccc(-c2cc(N(C)C)c3cnn(-c4cccc(C)n4)c3c2)n1 [Example 233, 1-(6-(4-(dimethylamino)-1-(6-methylpyridin-2-yl)-1H-indazol-6-yl)pyridin-2-yl)ethanone]",1000 to 10000

row,Compound,IC50 [nM]
1,"Nc1cncc(-c2ccc3cnn(-c4cccc(C(F)(F)F)n4)c3c2)c1 [Example 40, 5-(1-(6-(trifluoromethyl)pyridin-2-yl)-1H-indazol-6-yl)pyridin-3-amine]",< 100
2,"CS(=O)(=O)CCNC(=O)c1cccc(-n2ncc3ccc(-c4cncc(N)c4)cc32)n1 [Example 74, 6-(6-(5-aminopyridin-3-yl)-1H-indazol-1-yl)-N-(2-(methylsulfonyl)ethyl)picolinamide]",1000 to 10000
3,"N#CCNC(=O)c1cccc(-n2ncc3ccc(-c4cncc(N)c4)cc32)n1 [Example 73, 6-(6-(5-aminopyridin-3-yl)-1H-indazol-1-yl)-N-(cyanomethyl)picolinamide]",1000 to 10000
4,"N#CC[C@@H](N)c1cccc(-c2ccc3cnn(-c4cccc(CO)n4)c3c2)n1 [Example 581, (R)-3-amino-3-(6-(1-(6-(hydroxymethyl)pyridin-2-yl)-1H-indazol-6-yl)pyridin-2-yl)propanenitrile]",100 to 1000
5,"Cc1cccc(-n2ncc3c(-c4cc[nH]n4)cc(-c4cccc(C(C)N)n4)cc32)n1 (stereo not shown) [Example 319, 1-(6-(1-(6-methylpyridin-2-yl)-4-(1H-pyrazol-3-yl)-1H-indazol-6-yl)pyridin-2-yl)ethanamine]",< 100
6,"COCCOc1cc(-c2cccc(C3(N)CCOC3)n2)cc2c1cnn2-c1cccc(CO)n1 (stereo not shown) [Example 466, (6-(6-(6-(3-aminotetrahydrofuran-3-yl)pyridin-2-yl)-4-(2-methoxyethoxy)-1H-indazol-1-yl)pyridin-2-yl)methanol]",< 100
7,"NCc1cccc(-c2ccc3cnn(-c4cccc(CO)n4)c3c2)n1 [Example 291, (6-(6-(6-(aminomethyl)pyridin-2-yl)-1H-indazol-1-yl)pyridin-2-yl)methanol]",< 100
8,"CC(=O)Nc1cc(-c2cccc(C(C)N)n2)cc2c1cnn2-c1cccc(C)n1 (stereo not shown) [Example 103, N-(6-(6-(1-aminoethyl)pyridin-2-yl)-1-(6-methylpyridin-2-yl)-1H-indazol-4-yl)acetamide]",100 to 1000
9,"NCc1cccc(-c2ccc3cnn(-c4cccc(C(N)=O)n4)c3c2)n1 [Example 47, 6-(6-(6-(aminomethyl)pyridin-2-yl)-1H-indazol-1-yl)picolinamide]",< 100
10,"Cc1cccc(-n2ncc3c(C#N)cc(-c4cccc(C(C)N)n4)cc32)n1 (stereo not shown) [Example 214, 6-(6-(1-aminoethyl)pyridin-2-yl)-1-(6-methylpyridin-2-yl)-1H-indazole-4-carbonitrile]",< 100
11,"Cc1cccc(-n2ncc3c(Cl)cc(-c4cccc(C(C)N)n4)cc32)n1 (stereo not shown) [Example 106, 1-(6-(4-chloro-1-(6-methylpyridin-2-yl)-1H-indazol-6-yl)pyridin-2-yl)ethanamine]",< 100
12,"CCC[C@H](N)c1cccc(-c2ccc3cnn(-c4cncc(C)n4)c3c2)n1 [Example 590, (S)-1-(6-(1-(6-methylpyrazin-2-yl)-1H-indazol-6-yl)pyridin-2-yl)butan-1-amine]",< 100
13,"Cc1cccc(-n2ncc3c(CO)cc(-c4cccc(C(C)N)n4)cc32)n1 (stereo not shown) [Example 114, (6-(6-(1-aminoethyl)pyridin-2-yl)-1-(6-methylpyridin-2-yl)-1H-indazol-4-yl)methanol]",< 100
14,"C[C@H](N)c1cccc(-c2cc(-c3ccn(C(F)F)n3)c3cnn(-c4cccc(CO)n4)c3c2)n1 [Example 386, (S)-(6-(6-(6-(1-aminoethyl)pyridin-2-yl)-4-(1-(difluoromethyl)-1H-pyrazol-3-yl)-1H-indazol-1-yl)pyridin-2-yl)methanol]",< 100
15,"Cc1cccc(-n2ncc3ccc(-c4cn(C)c(CO)n4)cc32)n1 [Example 257, (1-methyl-4-(1-(6-methylpyridin-2-yl)-1H-indazol-6-yl)-1H-imidazol-2-yl)methanol]",< 100
16,"CCC[C@H](N)c1cccc(-c2cc(-c3cc(C)n(C)n3)c3cnn(-c4cccc(CO)n4)c3c2)n1 [Example 389, (S)-(6-(6-(6-(1-aminobutyl)pyridin-2-yl)-4-(1,5-dimethyl-1H-pyrazol-3-yl)-1H-indazol-1-yl)pyridin-2-yl)methanol]",< 100
17,"Cc1cccc(-n2cc3c(CN)cc(-c4cccc(C(C)N)n4)cc3n2)n1 (stereo not shown) [Example 215, 1-(6-(4-(aminomethyl)-2-(6-methylpyridin-2-yl)-2H-indazol-6-yl)pyridin-2-yl)ethanamine]",1000 to 10000
18,"CNC(=O)c1cc(-c2cccc(C(C)N)n2)cc2c1cnn2-c1cccc(C(F)(F)F)n1 (stereo not shown) [Example 59, 6-(6-(1-aminoethyl)pyridin-2-yl)-N-methyl-1-(6-(trifluoromethyl)pyridin-2-yl)-1H-indazole-4-carboxamide]",< 100
19,"CC(=O)c1cccc(-c2ccc3cnn(-c4ccccn4)c3c2)n1 [Example 229, 1-(6-(1-(pyridin-2-yl)-1H-indazol-6-yl)pyridin-2-yl)ethanone]",1000 to 10000
20,"CCC[C@H](N)c1cccc(-c2cc(C3CCN(C)CC3)c3cnn(-c4cccc(CO)n4)c3c2)n1 [Example 424, (S)-(6-(6-(6-(1-aminobutyl)pyridin-2-yl)-4-(1-methylpiperidin-4-yl)-1H-indazol-1-yl)pyridin-2-yl)methanol]",< 100

# — US10246456B2, “IRAK4 inhibiting agents” (BIOGEN MA INC., priority 2014, dated 2019)
